pIC50: −log10 of the molar value. Square brackets hold non-standard residues; d marks the D form. Side chains are listed from the residue outwards. Peptide text beside a SMILES is read from it. * marks the point of attachment. X1 = CCN(CC)c1ccc2c(-c3ccc(S(=O)(=O)*)cc3S(=O)(=O)O)c3ccc(=[N+](CC)CC)cc-3oc2c1; d2Nal = N[C@H](Cc1ccc2ccccc2c1)C(=O)O; Ahx = NCCCCCC(=O)O
Columns and labels:
[1] = tested on: tumor cells with antigen-specific T cells; experiment: CTL-mediated lysis (51Cr release); assay type: cell-based; settings: 10 μM, 4 hours
Procedure: After 4 hours, ^51Cr release was measured. Data shown in FIG. 39 are expressed as a percentage of total release induced by detergent lysis, and data represent mean±standard deviation of duplicate determinations.

[2] = tested on: normal bone marrow mononuclear cells; experiment: normal bone marrow cell toxicity (Annexin V); assay type: cell-based; settings: 5 μM, 20 hours
Procedure: After incubation, cells were washed, stained with FITC-conjugated Annexin V antibody and propidium iodide, and fluorescence measured by flow cytometry as described above.

[3] = tested on: Du145 prostate cancer cells; experiment: sensitization to anticancer drugs (MTT assay); assay type: cell-based; settings: 10 μM, 48 hours
Procedure: The percentage of viable cells relative to control was determined using a MTT (3-(4,5-dimethylthiazolyl-2)-2,5-diphenyltetrazolium bromide) assay which is commercially available (Sigma). […] Similar results were obtained for PPC1 (FIG. 31b) and PC3 (FIG. 31c) prostate cancer cells treated with VP16, DOX, or TAXOL, and for H460 (FIG. 31d) lung cancer cells treated with VP16 or DOX.

XIAP-inhibited caspase-3 = target: T1, XIAP-inhibited caspase-3 (Homo sapiens, UniProt P98170); experiment: caspase derepression assay (XIAP-inhibited caspase-3, Ac-DEVD-AFC hydrolysis); assay type: biochemical; settings: for activity in the derepression assay using full length XIAP: active / inactive
T1 construct: in the derepression assay using full length XIAP; made in house; host or cells: bacteria
T1 sequence (P98170 whole entry): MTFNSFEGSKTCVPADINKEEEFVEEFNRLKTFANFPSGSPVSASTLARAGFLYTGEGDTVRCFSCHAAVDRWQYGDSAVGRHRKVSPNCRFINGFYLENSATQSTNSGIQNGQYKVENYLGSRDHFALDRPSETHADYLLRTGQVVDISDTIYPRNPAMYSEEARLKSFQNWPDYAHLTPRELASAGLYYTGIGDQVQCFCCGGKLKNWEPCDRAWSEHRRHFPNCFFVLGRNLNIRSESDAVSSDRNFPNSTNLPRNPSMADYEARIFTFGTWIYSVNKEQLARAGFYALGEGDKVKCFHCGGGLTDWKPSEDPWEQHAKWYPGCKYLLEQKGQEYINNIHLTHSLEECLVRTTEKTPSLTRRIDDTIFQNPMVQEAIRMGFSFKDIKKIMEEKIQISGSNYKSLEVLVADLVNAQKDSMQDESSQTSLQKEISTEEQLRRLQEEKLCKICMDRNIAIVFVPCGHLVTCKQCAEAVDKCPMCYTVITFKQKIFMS
Procedure: (§1) Caspase activity was assayed by release of 7-amino-4-trifluoromethyl-coumarin (AFC) from Ac-DEVD-AFC synthetic peptide using a Molecular Devices Spectromax 340 (see Zhou et al., J. Biol. Chem. 272:7797–7800 (1997)). […] The ratio of Vmax for hydrolysis of Ac-DEVD-AFC in the presence and absence of the candidate mixture was calculated and used to identify those that contain an agent that derepresses an IAP-inhibited caspase.
(§2) Screening of each mixture from the DCR390, TPI 1239 or TPI 1328 library, respectively, using the above described assay was carried out as follows. Each mixture was aliquoted in a 25 microliter volume and in duplicate to a well of a 96 well microtiter plate. […] Fluorescence of liberated AFC was immediately detected from each well for 30 minutes at 30 second intervals. The Vmax for hydrolysis of AC-DEVD-AFC from each well was measured using the softmax software package. Results of the screen for the DCR390 library are shown in Table I. Sets of mixtures having the same position fixed with different respective amino acids are arranged in 6 sections identified with the position number. […] The mixture in each section are arranged in descending order according to apparent velocity in the second column.
Briefly, recombinant proteins were produced in bacteria and purified as described, for example, in Deveraux et al., Nature 388:300–304(1997). […] Generation of fluorogenic AFC (7-amino-4-trifluoromethyl coumarin) product was measured with a spectrofluorometric plate reader in kinetic mode for 30 minutes at 37° C. using excitation and emission wavelengths of 405 nm and 510 nm, respectively. […] Control reactions lacked XIAP, and all assays were conducted in the linear range of substrate hydrolysis to avoid substrate depletion artifacts.

[4] = tested on: PPC1, ALVA31, DU145 and HeLa cells; experiment: sensitization to TRAIL-induced apoptosis; assay type: cell-based; settings: 1 µM
Procedure: Similar tests of the effects of polyphenyl urea compounds on apoptosis induction by the biological agent TRAIL, an apoptosis inducing member of the Tumor Necrosis Factor (TNF) family were also performed.

[5] = tested on: PPC1 prostate cancer cells; experiment: PPC1 tumor xenograft; assay type: in vivo, Balb/C nu-/nu- mice; settings: 30 mg/kg i.p. for 2 or 3 days
From the text: Similar data was obtained using TPI 1396-22 (see FIG. 33a and 33b). […] In FIG. 33b, the mice were sacrificed at day 19 and the tumors excised and weighed.

[6] = tested on: HCT-116 colon cancer cells; experiment: HCT-116 tumor xenograft; assay type: in vivo, Balb/C nu-/nu- mice; settings: 30 mg/kg i.p. on days 6, 7 and 8
Procedure: Additional experiments were performed using a different tumor xenograft model. HCT-116 colon cancer cells (2.5 million) were injected subcutaneously in the flanks of female Balb/C nu−/nu− mice. […] Tumor volume was measured by external calipers at least twice weekly for 19 days (see FIG. 32c). On day 19, the mice were sacrificed and the tumors were excised and weighed.

Jurkat cells = experiment: caspase-3 and caspase-7 activity in whole Jurkat cells; assay type: cell-based; settings: 8 μM, 20 hours
[7] = target: XIAP binding to the SMAC peptide (Homo sapiens, UniProt P98170); experiment: SMAC competition / SMAC binding assay (biotinylated SMAC 7-mer, GST-XIAP)
Sequence of XIAP binding to the SMAC peptide (P98170 whole entry): as above
Procedure: Peptide compounds containing unnatural amino acids in the 792 series, 792-33 and 792-35 (see FIG. 12 and 20 and Example XI), and an active compound in the TPI 1332 series, TPI 1332-69, were tested for binding activity in the SMAC binding assay as described above in Example X. For this assay, biotinylated SMAC 7-mer peptide (50 ng) was bound to 96 well plates coated with NeutrAvidin (Pierce, Rockford, Ill.) at 1 mg/ml in 100 μl per well of 50 mM HEPES pH 7.4, 100 mM NaCl, 1 mM EDTA, 10% sucrose, 0.1% CHAPS, 10 mM DTT.

[8] = tested on: PC-3 and LNCaP prostate cancer cell lines; experiment: clonogenic survival (colony formation) assay; assay type: cell-based; settings: 10 μM
Procedure: In addition to short-term cytotoxicity assays, selected polyphenylurea compounds were tested for effects on clonogenic survival of cancer cells in colony formation assays, which can be considered a more stringent test of anticancer activity.

HeLa cells = experiment: apoptosis of transfected HeLa cells (Annexin V); assay type: cell-based; settings: 5 μM, 20 hours
Procedure: In addition to transfecting the cells with full-length XIAP, analogous assays were performed with HeLa cells transfected with plasmids over-expressing various XIAP mutants. […] The mutant was produced by site-directed mutagenesis to modify positions 148, 219, 223, 314 and 323 to contain alanine. HeLa cells were also transiently transfected with plasmids encoding Bcl-XL, an anti-apoptotic protein that operates upstream of caspases to suppress Cytochrome C release from mitochondria. HeLa cells (2.5×10^5) were seeded onto six well plates in 2 mL DMEM H21 with 5% FBS. After 24 hrs, cells were transfected (Gene Porter) with plasmids. […] Both floating and adherent cells were then recovered from cultures, washed, and apoptosis was determined by Annexin V staining using flow cytometry.
Bcl-XL over-expression did afford resistance to traditional anticancer drugs such as etoposide and CrmA (a caspase-8 inhibitor), and protected cells from apoptosis induced by TRAIL, confirming that these anti-apoptotic proteins were functional in these experiments.

[9] = tested on: U937 leukemia cells over-expressing XIAP; experiment: U937-Neo versus U937-XIAP cell death (Annexin V); assay type: cell-based; settings: 5 or 8 μM, 20 hours
Procedure: After incubation, cells were washed, stained with FITC-conjugated Annexin V antibody and propidium iodide, and fluorescence measured by flow cytometry as described in Example XI.
Equal amounts of protein were subjected to SDS-PAGE (4–20% gradient gels from ISC BioExpress, Kaysville, Utah.), followed by transfer to nitrocellulose membranes. […] Secondary antibodies consisted of horseradish peroxidase (HRP)-conjugated goat anti-mouse IgG (Bio-Rad, Hercules, Calif.). Detection was performed by the enhanced chemiluminescence (ECL) method. […] Lysates were prepared from the cells, normalized for total protein content and analyzed by SDS-PAGE immunoblotting using antibodies specific for XIAP, caspase-3, and β-actin.

Jurkat leukemia cells = experiment: Jurkat cell death (Annexin V / propidium iodide flow cytometry); assay type: cell-based
Procedure: The following assay was used to test the ability of individual compounds from the TPI 1396 and TPI 1391 libraries to induce apoptosis of cultured tumor cell lines. Each of the compounds listed in Table IX was individually added to Jurkat leukemia cells (6.25×10^5 cells/mL) in RPMI containing 2.5% FBS at various concentrations for 20 hours. After incubation, cells were washed and stained with FITC-conjugated Annexin V antibody and propidium iodide (Biovision; Mountain View, Calif.). Cells were incubated for 20 minutes at room temperature in the dark and fluorescence was measured by flow cytometry (FACScan, Immunocytometry system; Becton-Dickinson; San Jose, Calif.). Cells staining positive for Annexin V were deemed non-viable.

[10] = tested on: mouse embryo fibroblasts (MEFs), human prostate epithelial cells, peripheral blood lymphocytes (PBLs); experiment: normal cell viability (annexin-V, 2 days); assay type: cell-based; design: dose or concentration left out as unconfirmed
Procedure: After 2 days, cell viability was assessed by annexin-V staining.

stability in human serum = assay type: in vitro ADME; settings: expected
[11] = mouse, in vivo
Procedure: Selected polyphenylurea compounds were tested for anti-tumor activity in vivo, using human tumor xenografts grown in immunocompromised mice. First, it was determined what doses of polyphenylurea compounds were tolerated by mice. […] For tumor xenograft studies, PPC1 prostate cancer cells (2.5 million) were injected subcutaneously into the flanks of 8 male Balb/C nu−/nu− mice. […] Tumor growth was monitored at least twice weekly by external calipers (see FIG. 32b). At 24 days after compound injections, mice were sacrificed and tumors were excised and weighed (see FIG. 32b, inset).
Sera were assayed for BUN, bilirubin, ALT and AST.

[12] = tested on: NCI panel of 60 tumor cell lines; experiment: NCI panel of 60 tumor cell lines, protein-based colorimetric assay; design: species or system human; settings: 48 hours
Procedure: Selected polyphenylurea compounds were tested on the National Cancer Institute (NCI) panel of 60 tumor cell lines (see FIG. 28a and FIG. 29).

tumor tissue = experiment: in vivo caspase activation in tumors (immunoblot, immunohistochemistry); design: species or system Balb/c mice; settings: 30 mg/kg i.p. for 3 successive days
His-BIR2 of XIAP = experiment: rhodamine fluorescence polarization competitive binding assay; settings: titrated with TPI 1396-11; labeled compound 2.4 μM, His-BIR2 79 μM; read-out: IC50 of the labeled candidate compound
Procedure: In a second assay, competitive binding of candidate derepressors of IAP inhibited caspase was measured by a fluorescence polarization procedure. Fixed quantities of rhodamine-labeled candidate compound and IAP fragment were titrated against varying concentrations of a known IAP-binding compound. […] Polarization (millipolars or mP) was plotted against log concentration (log []) of the known IAP-binding compound. A plot of mP versus log concentration of the IAP-binding compound was then used to calculate the binding constant for the candidate compound-the IAP fragment pair.
Plates were incubated for one hour at room temperature, after which polarization of rhodamine was read in an LJL Analyst HT® multimode reader with excitation at 530 nm and emission at 580 nm.

caspase-3 = target: T2, caspase-3 (Homo sapiens, UniProt P42574); experiment: caspase-3 activity without XIAP (control arm of derepression assay); assay type: biochemical; settings: TPI 1239 library; ratio, no XIAP
T2 construct: made in house; host or cells: bacteria
T2 sequence (P42574 29-175 limits assumed): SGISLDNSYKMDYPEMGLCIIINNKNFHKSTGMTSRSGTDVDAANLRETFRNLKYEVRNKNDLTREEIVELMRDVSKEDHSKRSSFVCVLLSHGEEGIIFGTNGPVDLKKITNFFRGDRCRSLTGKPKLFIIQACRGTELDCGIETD
T2 sequence (P42574 176-277 limits assumed): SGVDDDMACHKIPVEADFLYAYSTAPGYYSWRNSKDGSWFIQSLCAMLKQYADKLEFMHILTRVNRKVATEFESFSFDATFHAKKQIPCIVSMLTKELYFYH
Procedure: as §1, §2

## COc1ccc(CCN2CCC[C@@H]2CN(C(=O)Nc2ccccc2)[C@@H](CNC(=O)Nc2ccccc2)CC2CCCCC2)cc1 [TPI 1396-34]
[1]
  effect on CTL-mediated lysis: sensitizes tumor targets to CTL-mediated lysis
[2]
  toxicity to normal bone marrow cells: little toxicity
[3]
  effect on cytotoxicity of VP16, DOX and TAXOL: significantly increased dose-dependent cytotoxicity
XIAP-inhibited caspase-3
  activity in the derepression assay using full length XIAP: active
[4]
  effect on TRAIL-induced apoptosis: sensitized
[5]
  tumor growth / tumor size: reduced tumor size
[6]
  tumor size: tumor size was reduced
Jurkat cells
  caspase activation: induced caspase activation
[7]
  competition with XIAP binding to the SMAC peptide: does not compete
[8]
  colony formation: < 5 % of control
HeLa cells
  apoptosis in HeLa cells over-expressing Bcl-XL: not blocked
  apoptosis in HeLa cells over-expressing full-length XIAP: protected
  apoptosis in HeLa cells transfected with a control vector: induced apoptosis
[9]
  effect of XIAP over-expression on apoptosis induction: over-expression of XIAP rendered U937 cells resistant
Jurkat leukemia cells; 10 μM
  time to half-maximal killing: approximately 12 hours
  time to maximum killing: about 24 hours
Jurkat leukemia cells; 20 hours
  apoptosis with 100 μM zVAD-fmk: suppressible
[10]
  increase of percentage cell death above background: less than one-fold

## CN(CCCCC(CNC(=O)Nc1ccccc1)N(CC1CCCN1CCCCC1CCCCC1)C(=O)Nc1ccccc1)C(=O)Nc1ccccc1 (stereo not shown) [TPI 1396-12]
Stability in human serum
  stable in human serum: greater than 48 hours
XIAP-inhibited caspase-3; Table X, R2 = L-Proline
  Activity (relative caspase-3 activity, ratio of Vmax with compound to Vmax of caspase-3 and XIAP controls): 2.7
XIAP-inhibited caspase-3
  activity in the derepression assay using full length XIAP: active
[11]
  maximum tolerated dose: 200 to 400 mg/kg
Jurkat leukemia cells; 1 µM
  % nonviable cells: 15%
Jurkat leukemia cells; 5 µM
  % nonviable cells: 95%
Jurkat leukemia cells; 10 μM
  % nonviable cells: 89%
Jurkat leukemia cells; 25 µM
  % nonviable cells: 89%
Jurkat leukemia cells; 50 µM
  % nonviable cells: 85%
[12]
  average LD50 for the 60 cell lines: 7.6 ± 12 µM
  median LD50 for the 60 cell lines: 6 µM
Tumor tissue
  caspase activation in tumors in vivo: induce caspase activation in tumors in vivo
  tumor proliferation (surrogate marker PCNA): no effect on tumor proliferation

## CCN(CC)c1ccc2c(-c3ccc(S(=O)(=O)NCCCCCC(=O)NCCCC[C@H](NC(=O)[C@@H](Cc4ccc5ccccc5c4)NC(=O)[C@H](Cc4c[nH]c5ccccc45)NC(=O)[C@H](Cc4c[nH]c5ccccc45)NC(=O)[C@H](C)N)C(N)=O)cc3S(=O)(=O)O)c3ccc(=[N+](CC)CC)cc-3oc2c1 [TPI 1566-11] (H-AWW[d2Nal]K([Ahx-X1])-NH2)
His-BIR2 of XIAP
  pIC50: 5.00

## CC[C@H](C)[C@H](NC(=O)[C@@H]1CCCN1C(=O)[C@@H](NC(=O)[C@H](C)N)C(C)C)C(=O)N[C@@H](C)C(=O)N[C@@H](CCC(N)=O)C(=O)N[C@@H](CCCCN)C(N)=O [SMAC, H-Ala-Val-Pro-Ile-Ala-Gln-Lys-NH2, reference compound] (H-AVPIAQK-NH2)
XIAP-inhibited caspase-3; TPI 1239 library, ratio in the presence of XIAP
  Vmax(mis + casp3 + XIAP) Vmax(casp3 + XIAP): 3.8 ± 1.7
caspase-3
  Vmax(mix + casp3) Vmax(casp3): 0.8 ± 0.0
